We go through one compound from paper PMC12073402, “A Selective MAP3K1 Inhibitor Facilitates Discovery of NPM1 as a Member of the Network” (Molecules, 2025).

Each structure is given as a SMILES string. A value given as a limit tells only on which side of the number the result lay.

Common to all, as to assay: KiNativ kinome profiling in PANC-1 lysate
Holding throughout (assay type): binding

In test [1] the test system is CK1g1, CK1g2, CK1g3. The conditions noted are these: 5 µM; ATP Loop; KIGCGNFGELR
The gist of the method: (§1)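 PANC-1 lysates were incubated with 5 μM inhibitor or DMSO, then labeled with a desthiobiotin-ATP acyl-phosphate probe that biotinylates conserved kinase lysines. Tryptic peptides were streptavidin-enriched and quantified by LC-MS/MS, reported as % change in MS signal from duplicate treated and duplicate control samples.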

Test [2] concerns the target T1, DLK (Homo sapiens, UniProt Q12852).
T1 construct: endogenous in cells; host or cells: PANC-1 lysate
Particulars: Lys2. The procedure, abridged: as §1

Test [3] addresses T2, Erk5 (Homo sapiens, UniProt Q13164).
T2 construct: endogenous in cells; host or cells: PANC-1 lysate
The conditions noted are these: Lys2. The procedure, abridged: as §1

Test [4] addresses T3, GSK3B (Homo sapiens, UniProt P49841).
T3 construct: we opted to conduct a kinome screen (KiNativ) in PANC-1 cell lysates; endogenous in cells; host or cells: PANC-1 cell lysate
The conditions noted are these: Lys2. The gist of the method: as §1

The target in test [5] is T4, IKKb (Homo sapiens, UniProt O14920).
T4 construct: we opted to conduct a kinome screen (KiNativ) in PANC-1 cell lysates; endogenous in cells; host or cells: PANC-1 cell lysate
T4 sequence (O14920 1-756): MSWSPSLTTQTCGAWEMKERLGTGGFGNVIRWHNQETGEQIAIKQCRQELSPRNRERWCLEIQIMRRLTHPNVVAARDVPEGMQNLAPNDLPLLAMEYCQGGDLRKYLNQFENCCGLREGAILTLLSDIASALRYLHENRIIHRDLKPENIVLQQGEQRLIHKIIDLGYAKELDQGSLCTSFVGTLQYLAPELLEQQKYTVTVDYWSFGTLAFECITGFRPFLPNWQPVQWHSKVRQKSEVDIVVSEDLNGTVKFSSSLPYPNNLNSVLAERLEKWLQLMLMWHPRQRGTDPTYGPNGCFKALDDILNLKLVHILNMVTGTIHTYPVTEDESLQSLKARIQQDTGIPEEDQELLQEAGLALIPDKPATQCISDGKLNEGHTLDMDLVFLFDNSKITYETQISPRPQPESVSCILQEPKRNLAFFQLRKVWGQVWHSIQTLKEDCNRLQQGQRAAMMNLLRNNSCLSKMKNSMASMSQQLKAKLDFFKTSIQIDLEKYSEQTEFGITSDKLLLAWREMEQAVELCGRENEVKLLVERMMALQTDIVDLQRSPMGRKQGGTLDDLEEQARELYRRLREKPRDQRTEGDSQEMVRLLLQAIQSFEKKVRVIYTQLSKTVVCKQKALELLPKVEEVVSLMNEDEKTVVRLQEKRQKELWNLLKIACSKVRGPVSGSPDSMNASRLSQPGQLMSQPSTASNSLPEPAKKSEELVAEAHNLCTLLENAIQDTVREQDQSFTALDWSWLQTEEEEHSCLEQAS
The procedure, abridged:
as §1

Test [6] has as its target T5, IRAK1 (Homo sapiens, UniProt P51617).
T5 construct: we opted to conduct a kinome screen (KiNativ) in PANC-1 cell lysates; endogenous in cells; host or cells: PANC-1 cell lysate
The conditions noted are these: Lys2. The procedure, abridged:
as §1

Test [7] addresses T6, LATS2 (Homo sapiens, UniProt Q9NRM7).
T6 construct: we opted to conduct a kinome screen (KiNativ) in PANC-1 cell lysates; endogenous in cells; host or cells: PANC-1 cell lysate
The procedure, abridged: as §1

In test [8] the target is T7, MAP2K7 (Homo sapiens, UniProt O14733).
T7 construct: endogenous in cells; host or cells: PANC-1 cell lysate
Particulars: Lys2. The gist of the method:
as §1

For test [9], the system named is MAPKAPK2, MAPKAPK3. Particulars: 5 µM; Lys2; DVKPENLLYTSK
The gist of the method: as §1

Test [10] deals with MARK2, MARK3. The conditions noted are these: 5 µM; Lys2; DLKAENLLLDADMNIK
The procedure, abridged:
as §1

The target in test [11] is T8, MAST3 (Homo sapiens, UniProt O60307).
T8 construct: endogenous in cells; host or cells: PANC-1
Particulars: Lys2. The gist of the method:
as §1

Test [12] relates to PCTAIRE1, PCTAIRE3. Particulars: 5 µM; Lys2; DLKPQNLLINER
The procedure, abridged:
as §1

Test [13] addresses T9, PIK3C3 (Homo sapiens, UniProt Q8NEB9).
T9 construct: endogenous in cells; host or cells: PANC-1 cell lysate
Particulars: ATP. The gist of the method:
as §1

Test [14] relates to PKCa, PKCb. The conditions noted are these: 5 µM; Lys2; DLKLDNVMLDSEGHIK
The gist of the method: as §1

In test [15] the test system is SRPK1, SRPK2. The conditions noted are these: 5 µM; Lys1; FVAMKVVK
The gist of the method:
as §1

Test [16] addresses T10, ZAK (Homo sapiens, UniProt Q9NYL2).
T10 construct: endogenous in cells; host or cells: PANC-1 cell lysate
The conditions noted are these: Lys1. The procedure, abridged: as §1

In test [17] the test system is ZC1/HGK, ZC2/TNIK, ZC3/MINK. Particulars: 5 µM; Lys2; DIKGQNVLLTENAEVK
The gist of the method:
as §1

T6 sequence (Q9NRM7 whole entry): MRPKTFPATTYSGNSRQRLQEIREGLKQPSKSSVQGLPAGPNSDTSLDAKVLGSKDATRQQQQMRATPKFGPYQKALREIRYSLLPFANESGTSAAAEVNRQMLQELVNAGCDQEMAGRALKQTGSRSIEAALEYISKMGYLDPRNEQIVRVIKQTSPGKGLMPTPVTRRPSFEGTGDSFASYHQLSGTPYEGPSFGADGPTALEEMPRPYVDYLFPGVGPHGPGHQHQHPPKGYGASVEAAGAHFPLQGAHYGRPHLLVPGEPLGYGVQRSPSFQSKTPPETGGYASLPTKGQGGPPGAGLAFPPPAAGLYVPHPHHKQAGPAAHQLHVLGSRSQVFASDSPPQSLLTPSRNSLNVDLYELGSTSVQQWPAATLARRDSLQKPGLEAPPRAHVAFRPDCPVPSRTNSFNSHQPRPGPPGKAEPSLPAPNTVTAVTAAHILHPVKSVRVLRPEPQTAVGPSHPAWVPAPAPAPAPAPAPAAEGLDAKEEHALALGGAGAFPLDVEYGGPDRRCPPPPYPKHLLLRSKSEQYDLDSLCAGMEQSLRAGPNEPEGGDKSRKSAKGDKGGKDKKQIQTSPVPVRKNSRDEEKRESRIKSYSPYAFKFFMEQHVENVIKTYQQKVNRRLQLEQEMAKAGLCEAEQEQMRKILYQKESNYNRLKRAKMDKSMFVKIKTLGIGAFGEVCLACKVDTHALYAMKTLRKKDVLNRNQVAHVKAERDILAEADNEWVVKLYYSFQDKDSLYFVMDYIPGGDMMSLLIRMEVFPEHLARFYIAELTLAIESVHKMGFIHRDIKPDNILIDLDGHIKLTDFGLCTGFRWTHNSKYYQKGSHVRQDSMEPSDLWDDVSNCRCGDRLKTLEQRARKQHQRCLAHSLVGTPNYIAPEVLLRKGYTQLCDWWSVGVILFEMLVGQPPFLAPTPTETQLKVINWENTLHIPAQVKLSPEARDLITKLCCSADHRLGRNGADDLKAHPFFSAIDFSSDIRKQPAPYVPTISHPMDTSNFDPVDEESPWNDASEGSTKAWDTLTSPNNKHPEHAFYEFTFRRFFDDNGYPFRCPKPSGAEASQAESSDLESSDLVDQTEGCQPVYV
T9 sequence (Q8NEB9 whole entry): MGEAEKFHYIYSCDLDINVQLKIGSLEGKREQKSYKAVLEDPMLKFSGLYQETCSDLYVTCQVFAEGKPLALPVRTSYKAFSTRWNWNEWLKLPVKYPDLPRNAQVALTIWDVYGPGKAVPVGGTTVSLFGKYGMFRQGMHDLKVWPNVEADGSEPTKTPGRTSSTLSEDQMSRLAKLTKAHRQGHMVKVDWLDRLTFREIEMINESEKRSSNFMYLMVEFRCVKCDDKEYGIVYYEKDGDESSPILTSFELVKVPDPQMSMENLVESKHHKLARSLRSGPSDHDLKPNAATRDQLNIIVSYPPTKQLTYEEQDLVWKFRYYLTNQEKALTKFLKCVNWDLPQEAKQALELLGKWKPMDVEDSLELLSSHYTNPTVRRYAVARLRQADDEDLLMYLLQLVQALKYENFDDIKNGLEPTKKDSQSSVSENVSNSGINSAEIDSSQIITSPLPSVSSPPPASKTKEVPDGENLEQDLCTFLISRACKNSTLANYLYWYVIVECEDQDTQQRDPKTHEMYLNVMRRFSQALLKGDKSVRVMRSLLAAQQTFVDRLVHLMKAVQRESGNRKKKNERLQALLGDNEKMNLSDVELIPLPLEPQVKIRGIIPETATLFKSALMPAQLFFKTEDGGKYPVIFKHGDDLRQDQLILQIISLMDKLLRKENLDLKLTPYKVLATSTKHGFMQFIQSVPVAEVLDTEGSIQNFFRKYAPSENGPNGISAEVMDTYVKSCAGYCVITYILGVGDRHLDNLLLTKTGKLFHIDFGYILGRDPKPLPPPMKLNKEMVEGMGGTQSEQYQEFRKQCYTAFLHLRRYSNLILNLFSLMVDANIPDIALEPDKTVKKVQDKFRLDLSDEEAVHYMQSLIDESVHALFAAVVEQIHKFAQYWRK
T1 sequence (Q12852 whole entry): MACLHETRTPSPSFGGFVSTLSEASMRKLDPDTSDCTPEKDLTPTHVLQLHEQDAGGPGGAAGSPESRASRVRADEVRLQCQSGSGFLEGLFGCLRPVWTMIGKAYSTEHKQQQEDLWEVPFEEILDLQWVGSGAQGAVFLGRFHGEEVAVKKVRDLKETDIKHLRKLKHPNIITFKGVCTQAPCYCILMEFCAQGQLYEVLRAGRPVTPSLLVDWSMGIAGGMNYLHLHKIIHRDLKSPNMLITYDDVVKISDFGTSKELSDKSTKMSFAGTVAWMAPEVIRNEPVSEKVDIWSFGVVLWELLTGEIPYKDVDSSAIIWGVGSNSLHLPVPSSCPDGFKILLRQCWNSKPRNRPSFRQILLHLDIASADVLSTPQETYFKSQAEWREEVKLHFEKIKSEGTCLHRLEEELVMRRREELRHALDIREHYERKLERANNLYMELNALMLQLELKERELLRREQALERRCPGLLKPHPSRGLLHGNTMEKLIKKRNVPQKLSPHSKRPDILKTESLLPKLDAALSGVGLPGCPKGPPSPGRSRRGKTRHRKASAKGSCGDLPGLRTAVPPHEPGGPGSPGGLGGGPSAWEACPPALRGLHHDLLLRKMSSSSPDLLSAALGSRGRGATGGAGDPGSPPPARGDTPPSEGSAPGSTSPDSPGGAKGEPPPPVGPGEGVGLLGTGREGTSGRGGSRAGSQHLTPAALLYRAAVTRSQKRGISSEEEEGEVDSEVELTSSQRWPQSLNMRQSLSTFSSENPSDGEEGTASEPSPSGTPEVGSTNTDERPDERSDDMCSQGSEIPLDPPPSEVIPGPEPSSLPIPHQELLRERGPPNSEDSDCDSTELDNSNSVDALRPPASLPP
T5 sequence (P51617 whole entry): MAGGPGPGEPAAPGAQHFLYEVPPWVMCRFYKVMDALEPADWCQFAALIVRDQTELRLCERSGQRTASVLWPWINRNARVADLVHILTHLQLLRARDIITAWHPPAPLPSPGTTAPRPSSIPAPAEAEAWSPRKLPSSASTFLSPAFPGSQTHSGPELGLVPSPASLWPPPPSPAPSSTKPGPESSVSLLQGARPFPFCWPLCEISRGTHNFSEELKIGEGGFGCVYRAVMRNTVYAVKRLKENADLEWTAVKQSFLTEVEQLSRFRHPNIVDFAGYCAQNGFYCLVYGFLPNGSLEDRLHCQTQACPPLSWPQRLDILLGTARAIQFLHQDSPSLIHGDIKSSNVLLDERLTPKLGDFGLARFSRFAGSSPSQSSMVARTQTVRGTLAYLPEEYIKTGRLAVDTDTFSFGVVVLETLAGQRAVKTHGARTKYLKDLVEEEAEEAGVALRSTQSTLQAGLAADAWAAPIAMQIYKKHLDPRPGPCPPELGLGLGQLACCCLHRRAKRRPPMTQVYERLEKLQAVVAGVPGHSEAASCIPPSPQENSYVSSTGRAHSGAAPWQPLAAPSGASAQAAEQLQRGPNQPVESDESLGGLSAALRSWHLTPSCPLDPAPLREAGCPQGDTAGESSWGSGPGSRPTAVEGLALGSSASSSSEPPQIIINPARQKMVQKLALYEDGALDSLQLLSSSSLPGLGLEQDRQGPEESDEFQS
T3 sequence (P49841 whole entry): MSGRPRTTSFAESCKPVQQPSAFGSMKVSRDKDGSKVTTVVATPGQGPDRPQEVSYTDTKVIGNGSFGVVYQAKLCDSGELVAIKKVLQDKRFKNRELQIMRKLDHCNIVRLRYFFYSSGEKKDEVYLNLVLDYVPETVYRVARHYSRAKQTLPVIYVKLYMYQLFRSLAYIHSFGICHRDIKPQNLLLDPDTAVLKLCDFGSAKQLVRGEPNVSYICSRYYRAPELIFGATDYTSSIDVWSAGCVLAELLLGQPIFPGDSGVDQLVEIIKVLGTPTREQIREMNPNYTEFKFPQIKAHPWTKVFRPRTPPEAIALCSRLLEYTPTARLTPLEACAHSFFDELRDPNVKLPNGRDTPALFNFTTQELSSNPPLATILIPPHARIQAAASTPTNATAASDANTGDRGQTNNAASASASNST
T2 sequence (Q13164 whole entry): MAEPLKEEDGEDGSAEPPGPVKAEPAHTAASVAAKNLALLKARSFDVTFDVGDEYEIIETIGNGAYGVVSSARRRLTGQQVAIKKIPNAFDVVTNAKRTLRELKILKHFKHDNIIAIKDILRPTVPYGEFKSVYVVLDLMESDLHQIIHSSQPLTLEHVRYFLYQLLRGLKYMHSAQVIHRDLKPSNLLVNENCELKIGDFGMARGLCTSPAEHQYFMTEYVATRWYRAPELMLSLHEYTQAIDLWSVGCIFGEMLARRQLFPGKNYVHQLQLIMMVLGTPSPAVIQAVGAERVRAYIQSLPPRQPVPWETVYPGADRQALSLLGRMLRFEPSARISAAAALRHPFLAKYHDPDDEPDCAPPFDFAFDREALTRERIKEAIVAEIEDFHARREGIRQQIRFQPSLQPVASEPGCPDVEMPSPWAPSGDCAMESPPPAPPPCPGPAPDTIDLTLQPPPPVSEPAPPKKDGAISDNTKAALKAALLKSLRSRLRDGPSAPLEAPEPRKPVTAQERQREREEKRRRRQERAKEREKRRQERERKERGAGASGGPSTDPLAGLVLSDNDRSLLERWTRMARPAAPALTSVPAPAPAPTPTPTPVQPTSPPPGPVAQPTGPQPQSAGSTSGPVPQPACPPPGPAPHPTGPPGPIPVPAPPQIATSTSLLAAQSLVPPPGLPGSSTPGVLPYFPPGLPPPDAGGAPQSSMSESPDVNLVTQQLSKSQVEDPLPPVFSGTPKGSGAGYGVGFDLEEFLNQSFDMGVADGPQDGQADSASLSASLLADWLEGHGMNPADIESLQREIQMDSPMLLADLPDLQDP

As to `Cn1cc(-c2cnc3ccc(NC(=O)Nc4ccc(F)c(C(F)(F)F)c4)cc3n2)cn1` [51-106, 1-(4-Fluoro-3-(trifluoromethyl)phenyl)-3-(3-(1-methyl-1H-pyrazol-4-yl)quinoxalin-6-yl)urea], the “% Inhibition” value is 11.7% in [1]; “NB (NB = No Binding (≤ 0))” in [9]; 11.3% in [10]; 4.8% in test [12]; “NB (NB = No Binding (≤ 0))” in [14]; “NB (NB = No Binding (≤ 0))” in test [15]. Besides, the “% Inhibition” value in [17] is recorded as “NB (NB = No Binding (≤ 0))”. The inhibition at 5 µM in test [2] was 5.9%; in test [3] it was 11.6%; in [4] it was not above 0%; in test [5] (Lys1, WHNQETGEQIAIKQCR), 0.1%; in test [5] (Lys2, DLKPENIVLQQGEQR), not above 0%; in test [6], not above 0%. Also, the inhibition at 5 µM in test [7] (Lys1, VDTHALYAMKTLR) was not above 0%; in [7] (Lys2, DIKPDNILIDLDGHIK), 1.4%; in test [8], not above 0%; in test [11], not above 0%; in test [13] (TEDGGKYPVIFKHGDDLR), 4.9%; in [13] (TEDGGKYPVIFKHGDDLRQDQLILQIISLMDK), not above 0%. Further, the inhibition at 5 µM in test [16] was not above 0%. For the same compound, the “inhibition of IKKβ (in words)” value in test [5] (5 μM, PANC-1 lysate) is “not inhibited”.
